Where a name gives a salt, the structure may show the parent alone. Each block holds one molecule with its values, some of them ahead of it.
Legend:
[1] = tested on: organic cation transporters (TEA); organic anion transporters (ES); settings: bovine
[2] = bovine
[3] = tested on: mouse mammary epithelial monolayer; settings: ref Toddywalla et al., 1997; cited from earlier work
[4] = tested on: human mammary epithelial monolayer; settings: ref Kimura et al., 2006; cited from earlier work
[5] = tested on: organic cation transporters (OCT); assay: Inhibition study: effect of inhibitors on TEA permeation across BME-UV monolayer; format: cell-based, bovine; settings: inhibitor added to donor compartment
[6] = tested on: organic anion transporters (OAT); assay: Inhibition study: effect of inhibitors on ES permeation across BME-UV monolayer; format: cell-based, bovine; settings: inhibitor added to donor compartment
[7] = tested on: monolayer of BME-UV cells
[8] = either direction (data not shown)

- Papp A→B at 4 h, 100 µM [1]: 0.66 ± 0.06 ×10⁻⁶ cm/s
- Papp B→A at 4 h, 100 µM [1]: 2.2 ± 0.1 ×10⁻⁶ cm/s
- Papp at 4 h (in vitro): 122 ± 34 ×10⁻⁶ cm/s
Compound: C[C@]12CC[C@@H]3c4ccc(OS(=O)(=O)O)cc4CC[C@H]3[C@@H]1CCC2=O [ES, estrone sulfate]

- Papp at 4 h, 2 µM [2]: 0.91 ± 0.4 ×10⁻⁶ cm/s
Compound: OC[C@@H](O)[C@@H](O)[C@H](O)[C@H](O)CO [mannitol]
- Papp of mannitol [3]: 1.94 ×10⁻⁶ cm/s
- Papp of mannitol [4]: 2.6 ×10⁻⁶ cm/s

Compound: CCCN(CCC)S(=O)(=O)c1ccc(C(=O)O)cc1 [probenecid]
- effect of inhibitor on permeation rate constant of TEA [5, 8]: not changed significantly
- decrease of permeation rate constant of ES by inhibitor ([6]; BL-to-Ap direction only): approximately 36%

Compound: CC[N+](CC)(CC)CC [TEA, Tetraethylammonium bromide]
- Papp A→B at 4 h, 100 µM [1]: 2 ± 0.02 ×10⁻⁶ cm/s
- Papp B→A at 4 h, 100 µM [1]: 5.1 ± 0.4 ×10⁻⁶ cm/s
- permeation rate constant for TEA relative to ES, Ap-to-BL ([7]; Ap-to-BL direction): 3 times
- permeation rate constant for TEA relative to ES, BL-to-Ap ([7]; BL-to-Ap direction): 2 times
- Papp at 4 h (in vitro): 161 ± 18 ×10⁻⁶ cm/s

Compound: CCN1C(=Cc2ccc3ccccc3[n+]2CC)C=Cc2ccccc21.[I-] [cyanine, 1,1-Diethyl-2,2-cyanine iodide]
- decrease of permeation rate constant of TEA by inhibitor ([5]; BL-to-Ap direction only): approximately 49%
- effect of inhibitor on permeation rate constant of ES [6, 8]: not changed significantly
